Test results from PubChem BioAssay AID1918954 (Molecular Pharmacology Branch, DTP, NCI, 2023).

Test system: MDA-MB-468 complex spheroids with HUVEC/MSC, viability
Experiment: Anticancer human tumor MDA-MB-468 cell line growth inhibition;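 further: spheroids exposed to agents for seven days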;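 on viability, T/C: 100% = DMSO vehicle control viability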
Conditions: for IC50: curve of first compound; for viability, T/C: stronger effect = lower value
In short: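 Multicellular complex spheroids of tumor cells with human endothelial cells (HUVEC) and mesenchymal stem cells; the LSD1 inhibitor iadademstat was combined with standard-of-care or investigational agents. Top concentration at or near clinical Cmax, half-log dilutions; final DMSO ≤0.25%.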

[1] = second compound 0.1 µM, first compound 0.0316 µM
[2] = second compound 0.1 µM, first compound 0.1 µM
[3] = second compound 0.1 µM, first compound 0.316 µM
[4] = second compound 0.1 µM, first compound 1 µM
[5] = second compound 0.1 µM, first compound 3.16 µM
[6] = second compound 0.1 µM, first compound 10 µM
[7] = second compound 0.316 µM, first compound 0.0316 µM
[8] = second compound 0.316 µM, first compound 0.1 µM
[9] = second compound 0.316 µM, first compound 0.316 µM
[10] = second compound 0.316 µM, first compound 1 µM
[11] = second compound 0.316 µM, first compound 3.16 µM
[12] = second compound 0.316 µM, first compound 10 µM
[13] = second compound 1 µM, first compound 0.0316 µM
[14] = second compound 1 µM, first compound 0.1 µM
[15] = second compound 1 µM, first compound 0.316 µM
[16] = second compound 1 µM, first compound 1 µM
[17] = second compound 1 µM, first compound 3.16 µM
[18] = second compound 1 µM, first compound 10 µM
[19] = second compound 3.16 µM, first compound 0.0316 µM
[20] = second compound 3.16 µM, first compound 0.1 µM
[21] = second compound 3.16 µM, first compound 0.316 µM
[22] = second compound 3.16 µM, first compound 1 µM
[23] = second compound 3.16 µM, first compound 3.16 µM
[24] = second compound 3.16 µM, first compound 10 µM
[25] = second compound 10 µM, first compound 0.0316 µM
[26] = second compound 10 µM, first compound 0.1 µM
[27] = second compound 10 µM, first compound 0.316 µM
[28] = second compound 10 µM, first compound 1 µM
[29] = second compound 10 µM, first compound 3.16 µM
[30] = second compound 10 µM, first compound 10 µM
[31] = second compound 0.1 µM, first compound 0.00316 µM
[32] = second compound 0.1 µM, first compound 0.01 µM
[33] = second compound 0.316 µM, first compound 0.00316 µM
[34] = second compound 0.316 µM, first compound 0.01 µM
[35] = second compound 1 µM, first compound 0.00316 µM
[36] = second compound 1 µM, first compound 0.01 µM
[37] = second compound 3.16 µM, first compound 0.00316 µM
[38] = second compound 3.16 µM, first compound 0.01 µM
[39] = second compound 10 µM, first compound 0.00316 µM
[40] = second compound 10 µM, first compound 0.01 µM

Row | SMILES | IC50 (second compound 0.1 µM) [nM] | IC50 (second compound 0.316 µM) [nM] | IC50 (second compound 1 µM) [nM] | IC50 (second compound 3.16 µM) [nM] | IC50 (second compound 10 µM) [nM] | viability, T/C [1] [%] | viability, T/C [2] [%] | viability, T/C [3] [%] | viability, T/C [4] [%] | viability, T/C [7] [%] | viability, T/C [8] [%] | viability, T/C [9] [%] | viability, T/C [10] [%] | viability, T/C [13] [%] | viability, T/C [14] [%] | viability, T/C [15] [%] | viability, T/C [16] [%] | viability, T/C [19] [%] | viability, T/C [20] [%] | viability, T/C [21] [%] | also measured
1 | CC(C)c1c(-c2ccccc2)nc2c(C#N)c[nH]n2c1=O + NC1CCC(NC2CC2c2ccccc2)CC1 | > 10000 | > 10000 | > 10000 | > 10000 | > 10000 | 96.1 | 109 | 109 | 108 | 99.2 | 101 | 84.3 | 99.5 | 102 | 103 | 96.3 | 102 | 82.2 | 102 | 77.7 | viability, T/C [5]: 105%; viability, T/C [6]: 85.4%; viability, T/C [11]: 102%; viability, T/C [12]: 99.5%; viability, T/C [17]: 101%; viability, T/C [18]: 85.8%; viability, T/C [22]: 95.4%; viability, T/C [23]: 50.7%; viability, T/C [24]: 62.5%; viability, T/C [25]: 74%; viability, T/C [26]: 66.7%; viability, T/C [27]: 70.2%; viability, T/C [28]: 57.2%; viability, T/C [29]: 66%; viability, T/C [30]: 70.4%
2 | CC1COCCN1c1cc(-c2ccnn2C)c2ccnc(-c3ccn[nH]3)c2n1 (stereo not given) + NC1CCC(NC2CC2c2ccccc2)CC1 | 15.2 | 16.2 | 16 | 12.2 | 4.61 | 42.3 | 22.9 | 15.6 | 11.2 | 38.2 | 23 | 16.5 | 13.8 | 37.3 | 23.2 | 16.4 | 9.5 | 38.9 | 27.6 | 18.4 | viability, T/C [31]: 81.7%; viability, T/C [32]: 54.2%; viability, T/C [33]: 68.7%; viability, T/C [34]: 58.5%; viability, T/C [35]: 72.8%; viability, T/C [36]: 59%; viability, T/C [37]: 60.4%; viability, T/C [38]: 52.7%; viability, T/C [22]: 14.9%; viability, T/C [39]: 52.9%; viability, T/C [40]: 44%; viability, T/C [25]: 30.1%; viability, T/C [26]: 19%; viability, T/C [27]: 17.4%; viability, T/C [28]: 13.4%
3 | CC1COCCN1c1cc(C2(S(C)(=N)=O)CC2)nc(-c2ccnc3[nH]ccc23)n1 (stereo not given) + NC1CCC(NC2CC2c2ccccc2)CC1 | 330 | 450 | 326 | 394 | 221 | 103 | 73.1 | 49.5 | 34.9 | 76.9 | 72.2 | 55.8 | 35.1 | 74.1 | 71 | 45.4 | 34.4 | 75.5 | 74.6 | 48.9 | viability, T/C [5]: 21.3%; viability, T/C [6]: 10.2%; viability, T/C [11]: 21.2%; viability, T/C [12]: 10.6%; viability, T/C [17]: 25.8%; viability, T/C [18]: 11.3%; viability, T/C [22]: 36.7%; viability, T/C [23]: 21.2%; viability, T/C [24]: 12.4%; viability, T/C [25]: 63.9%; viability, T/C [26]: 54.7%; viability, T/C [27]: 48.2%; viability, T/C [28]: 35.2%; viability, T/C [29]: 21.1%; viability, T/C [30]: 8.95%
4 | COc1ccc([C@@H](O)c2cc(-c3ncnc4cc(N5CCOCC5)ccc34)c(F)cc2Cl)nn1 + NC1CCC(NC2CC2c2ccccc2)CC1 | 1070 | 1160 | 817 | 832 | 1340 | 97.8 | 83.5 | 68 | 50 | 101 | 83.7 | 71.7 | 52.3 | 90.5 | 86.9 | 58.3 | 45.9 | 100 | 64.9 | 61.7 | viability, T/C [5]: 35%; viability, T/C [6]: 12.8%; viability, T/C [11]: 33.6%; viability, T/C [12]: 13.1%; viability, T/C [17]: 33.9%; viability, T/C [18]: 12.5%; viability, T/C [22]: 55.4%; viability, T/C [23]: 33.2%; viability, T/C [24]: 15.6%; viability, T/C [25]: 51.3%; viability, T/C [26]: 58.3%; viability, T/C [27]: 57.5%; viability, T/C [28]: 55%; viability, T/C [29]: 35.2%; viability, T/C [30]: 12.7%
5 | O=C(C=Cn1cnc(-c2cc(C(F)(F)F)cc(C(F)(F)F)c2)n1)NNc1cnccn1 + NC1CCC(NC2CC2c2ccccc2)CC1 | < 3.16 | < 3.16 | < 3.16 | < 3.16 | < 3.16 | 11.8 | 3.32 | 2.51 | 1.85 | 9.03 | 2.83 | 7.44 | 2.14 | 10.6 | 3.06 | 2.61 | 6.02 | 12.4 | 3.59 | 6.05 | viability, T/C [31]: 45.1%; viability, T/C [32]: 29.7%; viability, T/C [33]: 38.9%; viability, T/C [34]: 26.9%; viability, T/C [35]: 37.4%; viability, T/C [36]: 32%; viability, T/C [37]: 38.8%; viability, T/C [38]: 31%; viability, T/C [22]: 5.81%; viability, T/C [39]: 35.4%; viability, T/C [40]: 30.1%; viability, T/C [25]: 12.3%; viability, T/C [26]: 4.27%; viability, T/C [27]: 8.47%; viability, T/C [28]: 2.53%
